Laboratory results reported in patent publication US5270332A, “Cholesteral lowering agents” (Merck & Co., Inc., priority 1992, dated 1993).
pIC50: −log10 of the molar value.

Assays:
[1] = molecular target: T1, squalene synthase (human HepG2 enzyme) (Homo sapiens, UniProt P37268); assay: Squalene synthase assay, human HepG2 cell enzyme; format: biochemical; conditions: 3 μM 3H-farnesyl pyrophosphate, 30°, 20 minutes
T1 construct: The resulting pellet from the 100,000×g centrifugation, containing the squalene synthase, was resuspended in 5 ml of enzyme suspension buffer; endogenous in cells; host or cells: HepG2 cells (ATCC HB 8065), 100,000×g microsomal pellet
T1 sequence (P37268 1-417): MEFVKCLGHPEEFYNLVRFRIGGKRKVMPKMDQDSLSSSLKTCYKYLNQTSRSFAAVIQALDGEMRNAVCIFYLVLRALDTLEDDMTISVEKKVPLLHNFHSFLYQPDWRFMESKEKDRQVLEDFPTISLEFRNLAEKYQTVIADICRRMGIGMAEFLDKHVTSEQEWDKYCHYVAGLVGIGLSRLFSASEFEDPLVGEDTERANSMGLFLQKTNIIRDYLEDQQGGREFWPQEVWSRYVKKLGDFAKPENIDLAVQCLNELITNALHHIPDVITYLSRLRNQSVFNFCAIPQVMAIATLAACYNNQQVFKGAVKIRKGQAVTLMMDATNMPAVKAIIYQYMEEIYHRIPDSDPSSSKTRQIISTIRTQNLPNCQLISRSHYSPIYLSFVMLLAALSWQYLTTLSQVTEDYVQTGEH
Procedure: The intrinsic squalene synthase inhibitory activity of representative compounds of this invention was also measured by the standard in vitro protocol described below:
PREPARATION OF HUMAN HepG2 cell ENZYME
1. SOURCE: HEPG2 CELL LINE (Liver, hepatoblastoma, Human) ATCC No. HB 8065
2. CELL GROWTH AND MAINTENANCE
Culture Medium: Minimum essential medium (MEM) with non essential amino acids, sodium pyruvate, and 10% fetal bovine serum. The medium was changed twice weekly. […] The growth medium was prepared as listed below:
SUBCULTURE PROCEDURE: The medium was removed and washed with PBS (Phosphate-Buffered Saline 15.6 mM. pH 7.0). Fresh trypsin (0.25%)-EDTA (0.02%) with Hank's Balanced Salt solution was added and the flask was allowed to stand for a minute before the trypsin was removed. The flask was incubated at 37° C. until cells detached. Fresh medium was added and the cells were dispersed and dispensed into new flasks. Subcultivation ration: 1:6. […]
HARVEST: The medium was removed and the cells were washed with PBS. […] Cells 1 were counted (2.5×10^9 yield from 18 flasks (75cm^2)), and resuspended in 10 ml of 50 mM HEPES (N-[2-Hydroxyethyl]piperazine-N'-[2-ethane sulfonic acid]) containing 5 mM MgCl2, 2 mM MnCl2, 10 mM DTT, pH 7.5 (enzyme suspension buffer). […]

[2] = molecular target: T2, squalene synthase (rat liver enzyme) (Rattus norvegicus, UniProt Q02769); assay: Squalene synthase assay using rat liver microsomes; format: biochemical; conditions: [3H]farnesyl-pyrophosphate, 30° C., 20 minutes
T2 construct: from tissue; host or cells: liver microsomes of male Charles River CD rats fed 0.1% lovastatin for 4 days
T2 sequence (Q02769 1-416): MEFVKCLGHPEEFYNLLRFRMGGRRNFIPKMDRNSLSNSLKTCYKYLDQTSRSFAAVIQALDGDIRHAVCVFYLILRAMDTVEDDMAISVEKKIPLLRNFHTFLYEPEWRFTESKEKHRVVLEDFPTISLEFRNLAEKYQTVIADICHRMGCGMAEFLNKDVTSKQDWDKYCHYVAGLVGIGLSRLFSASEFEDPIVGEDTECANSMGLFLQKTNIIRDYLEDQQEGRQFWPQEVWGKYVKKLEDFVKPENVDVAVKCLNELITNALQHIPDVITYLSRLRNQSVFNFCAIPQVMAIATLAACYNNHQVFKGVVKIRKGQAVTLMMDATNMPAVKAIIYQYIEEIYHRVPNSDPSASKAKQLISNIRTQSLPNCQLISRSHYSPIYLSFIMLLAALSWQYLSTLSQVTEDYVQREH
Procedure: The squalene synthase assay using rat liver microsomes is described below:
Preparation of Rat Liver Microsomes
Male, Charles River CD rats (120 to 150 g) were fed a diet containing 0.1% lovastatin for 4 days. The livers from these rats were homogenized in 5 volumes (ml/g) of ice cold 50 mM HEPES (4-(2-hydroxyethyl)-1-piperazine ethanesulfonic acid), 5 mM EDTA (ethylenediaminetetraacetic acid) pH 7.5 with a Potter-Elvehjem type tissue grinder. The homogenate was centrifuged twice at 20,000×g for 15 minutes at 4° C., discarding the pellet each time. The supernatant was then centrifuged at 100,000×g for 1 hour at 4° C. The resulting microsomal pellet was resuspended in a volume of the above homogenizing buffer equal to one fifth the volume of the original homogenate. This microsomal preparation has a protein concentration of about 7 mg/ml. The microsomal suspensions were stored in aliquots at -70° C. […]
If a squalene epoxidase inhibitor (ingredient 7, above) is not used, the assay mix is degassed under a vacuum and flushed with N2. […] Five ml of scintillation fluid was added to the heptane solution and radioactivity was determined by liquid scintillation counting.
Percent inhibition is calculated by the formula: [formula]
IC50 values were determined by plotting the log of the concentration of the test compound versus the percentage inhibition. […]

Ras farnesylation = conditions: literature (Hancock et al.; Casey et al.; Schafer et al.); cited from earlier work

Compound | pIC50 [1] | pIC50 [2] | Inhibition of Ras farnesylation in vivo (Ras farnesylation)
CC(O)C(O)CCCCC=CCCCCC(=O)OC1C(O)C2(CCC(C)C(O)C(C)CC=Cc3ccccc3)OC(C(=O)O)C(O)(C(=O)O)C1(C(=O)O)O2 (stereo not shown) [Compound A] | 7.51 | 8.25 | 
CC[C@H](C)C(=O)O[C@H]1CCC=C2C=C[C@H](C)[C@H](CC[C@@H]3C[C@@H](O)CC(=O)O3)[C@H]21 [compactin] |  |  | Inhibition of Ras farnesylation in vivo has been demonstrated
CC[C@H](C)C(=O)O[C@H]1C[C@@H](C)C=C2C=C[C@H](C)[C@H](CC[C@@H]3C[C@@H](O)CC(=O)O3)[C@H]21 [lovastatin] |  |  | Inhibition of Ras farnesylation in vivo has been demonstrated
